According to PMC9100673, “Acridine Based N-Acylhydrazone Derivatives as Potential Anticancer Agents: Synthesis, Characterization and ctDNA/HSA Spectroscopic Binding Properties” (Molecules, 2022):

Legend:
[1] = target: T1, human serum albumin (HSA) (Homo sapiens, UniProt P02768); assay: HSA fluorescence quenching (steady-state fluorescence titration); assay type: binding; conditions: for KSV, Stern–Volmer quenching constant: HSA 4 μM, pH 7.4; for ΔH / ΔS: van't Hoff plot, 25–35 °C; for blue shift of HSA fluorescence emission maximum: λex 280 nm
T1 construct: purchased Sigma (St. Louis, MO, USA)
T1 sequence (P02768 25-609): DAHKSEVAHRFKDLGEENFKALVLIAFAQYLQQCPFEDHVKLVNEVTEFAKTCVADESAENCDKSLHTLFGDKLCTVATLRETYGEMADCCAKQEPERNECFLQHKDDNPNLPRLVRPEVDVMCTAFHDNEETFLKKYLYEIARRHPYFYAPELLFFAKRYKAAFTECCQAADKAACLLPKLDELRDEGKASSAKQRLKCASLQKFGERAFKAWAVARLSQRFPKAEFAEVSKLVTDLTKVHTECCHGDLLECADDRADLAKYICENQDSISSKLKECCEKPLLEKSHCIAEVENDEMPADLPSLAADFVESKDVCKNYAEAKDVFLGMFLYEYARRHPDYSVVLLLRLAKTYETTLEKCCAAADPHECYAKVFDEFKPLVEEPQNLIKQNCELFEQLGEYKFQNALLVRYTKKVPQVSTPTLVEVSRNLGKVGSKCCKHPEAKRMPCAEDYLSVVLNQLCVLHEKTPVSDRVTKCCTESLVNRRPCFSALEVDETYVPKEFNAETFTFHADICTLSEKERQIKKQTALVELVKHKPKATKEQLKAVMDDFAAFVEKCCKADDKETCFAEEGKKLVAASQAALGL
Description: Human serum albumin (HSA) emission spectra were recorded in the absence and presence of different amounts of acridine derivatives (3a–3d) at a range of 285 to 550 nm upon excitation at 280 nm. The emission maximum of fluorescence intensity of HSA was identified at 340 nm. […] The fluorescence intensity of HSA in the presence of the acridine derivatives decreases in the relation […], with decreases of 58%, 51%, 43% and 38%, respectively. Moreover, the reduction of fluorescence emission of HSA by derivatives 3a–3d was accompanied by an apparent change in the position of the maximum wavelength of the fluorescence emission, with a blue shift of 6 nm (3d) ≈ (3b) < 7 nm (3c) < 8 nm (3a).
The appearance of an isoactinic point at 430 nm might also indicate the existence of an equilibrium between bound and free drugs, with the presence of such an equilibrium possibly emphasizing the formation of the drug–protein complex. Fluorescence quenching can be divided into the two processes of dynamic and static quenching. In dynamic quenching, the fluorophore and quencher are in contact in an excited state, increasing the temperature and resulting in faster diffusion and a higher frequency of collision, which in turn increases the quenching constant. In comparison, static quenching is typical in complexes formed between the fluorophore and quencher in a ground state in which the increasing temperature weakens the stability of the complex. Quantitative analysis was performed by using the Stern–Volmer Equation (1):(1) F0/F=1+KSVQ=1+Kqτ0Q, where F0 and F represent the fluorescence intensity of HSA in the absence and presence of acridine derivatives, respectively. KSV is the Stern–Volmer dynamic quenching constant which was determined from the plot of relative intensity F0/F of fluorescence vs. the concentration of the acridine derivative. Kq is the quenching rate constant of biomolecules, which is known to be around 2.0 × 10^10 M^−1 s^−1, and τ0 is the average lifetime of the fluorophore in the absence of the quencher, with a typical value equal to around 10^−8 for biomolecules. The quenching constant KSV of derivatives 3a–3d were of 10^5 M^−1. The KSV values recorded for derivatives 3a and 3b decreased at increasing temperatures, while those of derivatives 3c and 3d increased at increasing temperatures. The increased KSV values at increasing temperature in the presence of derivative 3c may indicate that the binding forces are mainly hydrophobic (endothermic apolar interactions are strengthened at increasing temperatures). Additionally, the Kq values obtained for HSA of 10^13 M^−1 s^−1 are greater than the limiting diffusion rate constant of diffusional quenching for biopolymers (2.0 × 10^10 M^−1 s^−1).
In order to evaluate the magnitude of the interaction, other parameters such as the binding constant ( Kb) and the number of binding sites (n) on the drug–HSA complex were calculated at three temperatures using Equation (2):(2) logF0−F/F=logKb+nlogQ, where F0 and F are the fluorescence intensity of the fluorophore (HSA) in the absence and presence of the quencher-acridine derivative, and [Q] is the quencher concentration. The values of Kb and n were determined using the linear regression of a plot of log(F0 − F/F) to log[Q] (Figure S3). […] Since the values of Kb were 10^5 M^−1 (3a–3c) or 10^4 M^−1 (3d), it would therefore be suitable for distribution in the plasma in vivo.
Based on the Kb dependency on temperature, it is, therefore, possible to analyse the temperature-dependent thermodynamic parameters which can be considered as responsible for the formation of a complex. […]

Structure (SMILES) | melting point [°C] | Kq, bimolecular quenching rate constant ([1]; 25 °C) [M⁻¹ s⁻¹] | n, number of binding sites ([1]; 25 °C) | ΔG ([1]; 25 °C) [kcal/mol] | KSV, Stern–Volmer quenching constant ([1]; 25 °C) [M⁻¹] | Kq, bimolecular quenching rate constant ([1]; 30 °C) [M⁻¹ s⁻¹] | n, number of binding sites ([1]; 30 °C) | ΔG ([1]; 30 °C) [kcal/mol] | KSV, Stern–Volmer quenching constant ([1]; 30 °C) [M⁻¹] | Kq, bimolecular quenching rate constant ([1]; 35 °C) [M⁻¹ s⁻¹] | n, number of binding sites ([1]; 35 °C) | ΔG ([1]; 35 °C) [kcal/mol] | KSV, Stern–Volmer quenching constant ([1]; 35 °C) [M⁻¹] | ΔH [1] [kcal/mol] | ΔS [1] | blue shift of HSA fluorescence emission maximum [1] [nm] | KSV for the HSA-3a complex ([1]; without site marker) [M⁻¹] | Kb for the HSA-3a complex ([1]; without site marker) [M⁻¹]
O=C(N/N=C/c1cccc2cc3ccccc3nc12)c1ccc(Cl)cc1 [3c, N′-[(E)-Acridin-4-ylmethylidene]-4-chlorobenzohydrazide] | 266 to 267 | 2.29e+13 | 0.888 | -6.427 | 229000 | 2.48e+13 | 0.925 | -7.108 | 248000 | 2.62e+13 | 1.030 | -7.787 | 262000 | 34.07 | 568.32 ×10^−3 kJ mol^−1 K^−1 | 7 |  | 
O=C(N/N=C/c1cccc2cc3ccccc3nc12)c1ccc(Br)cc1 [3d, N′-[(E)-Acridin-4-ylmethylidene]-4-bromobenzohydrazide] | 269 to 270 | 1.16e+13 | 1.052 | -7.249 | 116000 | 2.06e+13 | 0.917 | -6.828 | 206000 | 2.42e+13 | 0.846 | -6.408 | 242000 | -32.361 | −352.39 ×10^−3 kJ mol^−1 K^−1 | 6 |  | 
O=C(N/N=C/c1cccc2cc3ccccc3nc12)c1ccccc1 [3a, N′-[(E)-(Acridin-4-yl)methylidene]benzohydrazide] | 235 to 236 | 2.67e+13 | 1.068 | -7.918 | 267000 | 2.68e+13 | 1.054 | -7.878 | 268000 | 2.61e+13 | 1.023 | -7.837 | 261000 | -10.33 | −33.80 ×10^−3 kJ mol^−1 K^−1 | 8 | 267000 | 610000
O=C(N/N=C/c1cccc2cc3ccccc3nc12)c1ccc(F)cc1 [3b, N′-[(E)-Acridin-4-ylmethylidene]-4-fluorobenzohydrazide] | 229 to 230 | 1.51e+13 | 1.079 | -7.66 | 151000 | 1.57e+13 | 1.061 | -7.61 | 157000 | 1.37e+13 | 1.039 | -7.557 | 137000 | -10.74 | −43.24 ×10^−3 kJ mol^−1 K^−1 | ~6 |  | 
